IC50 data for seven molecules are collected here from ChEMBL document CHEMBL1129347, “Topographical amino acid substitution in position 10 of glucagon leads to antagonists/partial agonists with greater binding differences” (J Med Chem, 1996).

By IC50 is commonly meant the concentration that gives 50% inhibition. High values mean weaker potency, low ones greater potency.

In this assay the target is Glucagon receptor (Rattus norvegicus, UniProt P30082). Description: Inhibition of [125I]glucagon binding towards Glucagon receptor.
Chain of Glucagon receptor (P30082 whole entry): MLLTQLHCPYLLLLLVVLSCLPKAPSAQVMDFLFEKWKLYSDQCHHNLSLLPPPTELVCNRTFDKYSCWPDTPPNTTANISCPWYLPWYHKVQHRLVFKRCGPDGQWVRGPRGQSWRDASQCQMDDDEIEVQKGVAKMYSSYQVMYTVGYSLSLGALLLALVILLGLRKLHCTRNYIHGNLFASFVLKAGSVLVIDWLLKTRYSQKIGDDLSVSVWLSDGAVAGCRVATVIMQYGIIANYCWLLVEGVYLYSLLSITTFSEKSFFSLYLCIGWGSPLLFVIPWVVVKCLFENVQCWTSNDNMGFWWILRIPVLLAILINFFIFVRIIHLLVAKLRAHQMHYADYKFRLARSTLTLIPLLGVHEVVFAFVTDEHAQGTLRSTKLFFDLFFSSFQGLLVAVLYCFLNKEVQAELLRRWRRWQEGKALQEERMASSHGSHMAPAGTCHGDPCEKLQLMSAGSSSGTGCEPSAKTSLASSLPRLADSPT
Turning to `CSCC[C@H](NC(=O)[C@H](CC(C)C)NC(=O)[C@H](Cc1c[nH]c2ccccc12)NC(=O)[C@H](CCC(N)=O)NC(=O)[C@@H](NC(=O)[C@H](Cc1ccccc1)NC(=O)[C@H](CC(=O)O)NC(=O)[C@H](CCC(N)=O)NC(=O)[C@H](C)NC(=O)[C@H](CCCN=C(N)N)NC(=O)[C@H](CCCN=C(N)N)NC(=O)[C@H](CO)NC(=O)[C@H](CC(=O)O)NC(=O)[C@H](CC(C)C)NC(=O)[C@H](Cc1ccc(O)cc1)NC(=O)[C@H](CCCCN)NC(=O)[C@H](CO)NC(=O)[C@@H](Cc1ccc(O)cc1)NC(=O)[C@H](CCC(=O)O)NC(=O)[C@H](CO)NC(=O)[C@@H](NC(=O)[C@H](Cc1ccccc1)NC(=O)[C@H](Cc1ccc(O)cc1)NC(=O)CNC(=O)[C@H](CCC(N)=O)NC(=O)[C@@H](N)CO)[C@@H](C)O)C(C)C)C(=O)N[C@@H](CC(N)=O)C(=O)N[C@H](C(N)=O)[C@@H](C)O`, the IC50 was 74 nM. With `CSCC[C@H](NC(=O)[C@H](CC(C)C)NC(=O)[C@H](Cc1c[nH]c2ccccc12)NC(=O)[C@H](CCC(N)=O)NC(=O)[C@@H](NC(=O)[C@H](Cc1ccccc1)NC(=O)[C@H](CC(=O)O)NC(=O)[C@H](CCC(N)=O)NC(=O)[C@H](C)NC(=O)[C@H](CCCN=C(N)N)NC(=O)[C@H](CCCN=C(N)N)NC(=O)[C@H](CO)NC(=O)[C@H](CC(=O)O)NC(=O)[C@H](CC(C)C)NC(=O)[C@H](Cc1ccc(O)cc1)NC(=O)[C@H](CCCCN)NC(=O)[C@H](CO)NC(=O)[C@@H](NC(=O)[C@H](CCC(=O)O)NC(=O)[C@H](CO)NC(=O)[C@@H](NC(=O)[C@H](Cc1ccccc1)NC(=O)[C@H](Cc1ccc(O)cc1)NC(=O)CNC(=O)[C@H](CCC(N)=O)NC(=O)[C@@H](N)CO)[C@@H](C)O)[C@H](C)c1ccccc1)C(C)C)C(=O)N[C@@H](CC(N)=O)C(=O)N[C@H](C(N)=O)[C@@H](C)O` the figure was 10 nM; with `CSCC[C@H](NC(=O)[C@H](CC(C)C)NC(=O)[C@H](Cc1c[nH]c2ccccc12)NC(=O)[C@H](CCC(N)=O)NC(=O)[C@@H](NC(=O)[C@H](Cc1ccccc1)NC(=O)[C@H](CC(=O)O)NC(=O)[C@H](CCC(N)=O)NC(=O)[C@H](C)NC(=O)[C@H](CCCNC(=N)N)NC(=O)[C@H](CCCNC(=N)N)NC(=O)[C@H](CO)NC(=O)[C@H](CC(=O)O)NC(=O)[C@H](CC(C)C)NC(=O)[C@H](Cc1ccc(O)cc1)NC(=O)[C@H](CCCCN)NC(=O)[C@H](CO)NC(=O)[C@H](Cc1ccccc1)NC(=O)[C@H](CCC(=O)O)NC(=O)[C@H](CO)NC(=O)[C@@H](NC(=O)[C@H](Cc1ccccc1)NC(=O)[C@H](Cc1ccc(O)cc1)NC(=O)CNC(=O)[C@H](CCC(N)=O)NC(=O)[C@@H](N)CO)[C@@H](C)O)C(C)C)C(=O)N[C@@H](CC(N)=O)C(=O)N[C@H](C(N)=O)[C@@H](C)O`, 4.1 nM; with `CSCC[C@H](NC(=O)[C@H](CC(C)C)NC(=O)[C@H](Cc1c[nH]c2ccccc12)NC(=O)[C@H](CCC(N)=O)NC(=O)[C@@H](NC(=O)[C@H](Cc1ccccc1)NC(=O)[C@H](CC(=O)O)NC(=O)[C@H](CCC(N)=O)NC(=O)[C@H](C)NC(=O)[C@H](CCCNC(=N)N)NC(=O)[C@H](CCCNC(=N)N)NC(=O)[C@H](CO)NC(=O)[C@H](CC(=O)O)NC(=O)[C@H](CC(C)C)NC(=O)[C@H](Cc1ccc(O)cc1)NC(=O)[C@H](CCCCN)NC(=O)[C@H](CO)NC(=O)[C@@H](Cc1ccccc1)NC(=O)[C@H](CCC(=O)O)NC(=O)[C@H](CO)NC(=O)[C@@H](NC(=O)[C@H](Cc1ccccc1)NC(=O)[C@H](Cc1ccc(O)cc1)NC(=O)CNC(=O)[C@H](CCC(N)=O)NC(=O)[C@@H](N)CO)[C@@H](C)O)C(C)C)C(=O)N[C@@H](CC(N)=O)C(=O)N[C@H](C(N)=O)[C@@H](C)O`, 34.5 nM. With `CSCC[C@H](NC(=O)[C@H](CC(C)C)NC(=O)[C@H](Cc1c[nH]c2ccccc12)NC(=O)[C@H](CCC(N)=O)NC(=O)[C@@H](NC(=O)[C@H](Cc1ccccc1)NC(=O)[C@H](CC(=O)O)NC(=O)[C@H](CCC(N)=O)NC(=O)[C@H](C)NC(=O)[C@H](CCCN=C(N)N)NC(=O)[C@H](CCCN=C(N)N)NC(=O)[C@H](CO)NC(=O)[C@H](CC(=O)O)NC(=O)[C@H](CC(C)C)NC(=O)[C@H](Cc1ccc(O)cc1)NC(=O)[C@H](CCCCN)NC(=O)[C@H](CO)NC(=O)[C@H](Cc1ccc(O)cc1)NC(=O)[C@H](CCC(=O)O)NC(=O)[C@H](CO)NC(=O)[C@@H](NC(=O)[C@H](Cc1ccccc1)NC(=O)[C@H](Cc1ccc(O)cc1)NC(=O)CNC(=O)[C@H](CCC(N)=O)NC(=O)[C@@H](N)CO)[C@@H](C)O)C(C)C)C(=O)N[C@@H](CC(N)=O)C(=O)N[C@H](C(N)=O)[C@@H](C)O` the figure was 2.3 nM; with `CSCC[C@H](NC(=O)[C@H](CC(C)C)NC(=O)[C@H](Cc1c[nH]c2ccccc12)NC(=O)[C@H](CCC(N)=O)NC(=O)[C@@H](NC(=O)[C@H](Cc1ccccc1)NC(=O)[C@H](CC(=O)O)NC(=O)[C@H](CCC(N)=O)NC(=O)[C@H](C)NC(=O)[C@H](CCCNC(=N)N)NC(=O)[C@H](CCCNC(=N)N)NC(=O)[C@H](CO)NC(=O)[C@H](CC(=O)O)NC(=O)[C@H](CC(C)C)NC(=O)[C@H](Cc1ccc(O)cc1)NC(=O)[C@H](CCCCN)NC(=O)[C@H](CO)NC(=O)[C@H](C)NC(=O)[C@H](CCC(=O)O)NC(=O)[C@H](CO)NC(=O)[C@@H](NC(=O)[C@H](Cc1ccccc1)NC(=O)[C@H](Cc1ccc(O)cc1)NC(=O)CNC(=O)[C@H](CCC(N)=O)NC(=O)[C@@H](N)CO)[C@@H](C)O)C(C)C)C(=O)N[C@@H](CC(N)=O)C(=O)N[C@H](C(N)=O)[C@@H](C)O`, 395 nM; with `CSCC[C@H](NC(=O)[C@H](CC(C)C)NC(=O)[C@H](Cc1c[nH]c2ccccc12)NC(=O)[C@H](CCC(N)=O)NC(=O)[C@@H](NC(=O)[C@H](Cc1ccccc1)NC(=O)[C@H](CC(=O)O)NC(=O)[C@H](CCC(N)=O)NC(=O)C(C)NC(=O)[C@H](CCCN=C(N)N)NC(=O)[C@H](CCCN=C(N)N)NC(=O)[C@H](CO)NC(=O)[C@H](CC(=O)O)NC(=O)[C@H](CC(C)C)NC(=O)[C@H](Cc1ccc(O)cc1)NC(=O)[C@H](CCCCN)NC(=O)[C@H](CO)NC(=O)C(C)NC(=O)[C@H](CCC(=O)O)NC(=O)[C@H](CO)NC(=O)[C@@H](NC(=O)[C@H](Cc1ccccc1)NC(=O)[C@H](Cc1ccc(O)cc1)NC(=O)CNC(=O)[C@H](CCC(N)=O)NC(=O)[C@@H](N)CO)[C@@H](C)O)C(C)C)C(=O)N[C@@H](CC(N)=O)C(=O)N[C@H](C(N)=O)[C@@H](C)O` (stereo in doubt), 510 nM.
